Measured values taken from US20240344241A1, “PROTEINACEOUS MOLECULES AND USES THEREFOR” (THE UNIVERSITY OF QUEENSLAND, priority 2021, published 2024).
Bridge positions count the residues as written; N and C are the ends. Peptide text beside a SMILES is read from it.

Experiments:
[1] = test system: clotting via the intrinsic pathway; assay: Activated partial thromboplastin time (aPTT) assay in human plasma; type: biochemical
From the text: Citrated, platelet-poor plasma samples from healthy adults were collected, prepared, and stored using previously established collection protocols, such as in Zdenek et al. (2019) Toxicol in Vitro, 58: 97-109.
Standard coagulation assays were used to determine the effect of the inhibitors on the clotting time of human plasma. Activated partial thromboplastin time (aPTT) uses a Kaolin reagent (clay) to activate the intrinsic/contact pathway of the coagulation cascade, whereas prothrombin time (PT) uses Neoplastine (lyophilized thromboplastin prepared from rabbit cerebral tissue) to activate the extrinsic/tissue-factor pathway of the coagulation cascade. A minor adjustment was made to both tests (addition of 25 μL inhibitor or buffer; refer to Table 17) to accommodate the addition of an inhibitor without changing the total volume (and therefore relative ratios of additives) of the assay. Concentrations of inhibitor are reported as the concentration at the point of incubation in the assay, i.e. not taking into account the addition of the start reagent (calcium for aPTT, or Neoplastine for PT).
Clotting time (seconds) of plasma was automatically measured using a STA-R Max® analyzer (Stago, Asnieres sur Seine, France). Measurements were conducted using a viscosity-based (mechanical) detection system, whereby opposing magnets oscillate a small metal spherical pellet inside the test cuvette (250 μL total volume) until a clot is formed. Dilution of the inhibitor in Owren-Koller (OK) buffer for dose-response curves was performed automatically by the machine. Reagents were kept at 15-19° C. in the machine during experimentation and otherwise stored at 4° C. All tests were performed in triplicate.

Human FXIa = biological target: T1, Human FXIa (Homo sapiens, UniProt P03951); assay: FXIa inhibition assay; type: biochemical
T1 construct: Human β-FXIIa was obtained from Molecular Innovations, together with human FXa, human FXIa, human α-thrombin, and human plasma kallikrein; purchased Molecular Innovations; host or cells: purified from human plasma
Description: (§1) The activity of acyclic and cyclic MCoFx1-5 and analogues thereof was assessed in competitive inhibition assays, as previously described in Swedberg et al. (2016) J Med Chem, 59: 7287-7292. Human β-FXIIa was obtained from Molecular Innovations, together with human FXa, human FXIa, human α-thrombin, and human plasma kallikrein. Human cationic trypsin and human plasmin were obtained from Sigma-Aldrich, and recombinant human matriptase was sourced from R&D Systems. Recombinant human urokinase (uPA) and recombinant human tissue plasminogen activator (tPA) were expressed in Expi293 cells, as previously described in Li et al. (2019) Chembiochem, 20: 46-50. FXIIa inhibition assays were performed in clear, low-binding 96-well plates using 250 μL (final volume) of assay buffer (0.1 M Tris-HCl pH 8.0, 0.1 M NaCl, 10 mM CaCl2 and 0.005% Triton X-100). Inhibitors were serially diluted and incubated with 10 nM FXIIa at room temperature to reach equilibrium. After adding 100 μM Ac-QRFR-pNA substrate (KM=162 μM), enzymatic activity was measured by monitoring release of the pNA moiety using a TECAN infinite M1000 Pro plate reader (A=405 nm, reading interval, 10 s; assay time course, 7 min). Assays were conducted in three times in duplicate. Substrate kinetic constants (Michaelis-Menten) and inhibition constants (Morrison K) were determined by non-linear regression using Prism 7 (GraphPad). Selectivity assays with off-target proteases were performed in a similar way, except that different concentrations of enzyme and substrate were used, as indicated in Table 16. For assays using a fluorescent substrate (peptide-4-methylcoumaryl-7-amide, MCA), black low-binding 96-well plates were used and activity was measured using a TECAN infinite M1000 pro plate reader (λex 360 nm, λem 460 nm, reading interval, 30 s; assay time course, 5-30 min).

[2] = biological target: T2, biotinylated human β-FXIIa (Homo sapiens, UniProt P00748); assay: Surface plasmon resonance binding to FXIIa
T2 construct: purchased Molecular Innovations
How it was run: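 Biacore T200 SPR with biotinylated β-FXIIa captured on a CAP chip, running buffer HBS-EP+ pH 7.4. Peptides injected as a concentration series, surface regenerated after each cycle; kinetics modelled with a 1:1 binding model.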

Rec. human uPA = biological target: T3, Rec. human uPA (Homo sapiens, UniProt P00749); assay: uPA inhibition assay; type: biochemical
T3 construct: made in house; host or cells: Expi293 cells
Description: as §1

Human plasma kallikrein = biological target: T4, Human plasma kallikrein (Homo sapiens, UniProt P03952); assay: Plasma kallikrein inhibition assay; type: biochemical
T4 construct: Human β-FXIIa was obtained from Molecular Innovations, together with human FXa, human FXIa, human α-thrombin, and human plasma kallikrein; purchased Molecular Innovations; host or cells: purified from human plasma
Description: as §1

Human FXa = biological target: T5, Human FXa (Homo sapiens, UniProt P00742); assay: FXa inhibition assay; type: biochemical
T5 construct: Human β-FXIIa was obtained from Molecular Innovations, together with human FXa, human FXIa, human α-thrombin, and human plasma kallikrein; purchased Molecular Innovations; host or cells: purified from human plasma
Description: as §1

T5 sequence (P00742 235-488 limits assumed): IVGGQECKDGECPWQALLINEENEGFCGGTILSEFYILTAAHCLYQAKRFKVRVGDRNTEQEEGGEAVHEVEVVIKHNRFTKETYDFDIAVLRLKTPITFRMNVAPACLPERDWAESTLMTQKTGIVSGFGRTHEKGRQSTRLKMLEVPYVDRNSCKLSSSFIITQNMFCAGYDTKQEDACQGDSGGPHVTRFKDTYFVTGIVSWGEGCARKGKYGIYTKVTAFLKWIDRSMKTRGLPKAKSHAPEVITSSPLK
T5 sequence (P00742 41-179 partner limits assumed): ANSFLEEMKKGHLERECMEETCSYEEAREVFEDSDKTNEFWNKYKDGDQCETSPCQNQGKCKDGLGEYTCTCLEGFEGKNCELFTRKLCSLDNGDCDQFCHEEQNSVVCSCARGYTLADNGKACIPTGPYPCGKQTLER
T1 sequence (P03951 388-625 limits assumed): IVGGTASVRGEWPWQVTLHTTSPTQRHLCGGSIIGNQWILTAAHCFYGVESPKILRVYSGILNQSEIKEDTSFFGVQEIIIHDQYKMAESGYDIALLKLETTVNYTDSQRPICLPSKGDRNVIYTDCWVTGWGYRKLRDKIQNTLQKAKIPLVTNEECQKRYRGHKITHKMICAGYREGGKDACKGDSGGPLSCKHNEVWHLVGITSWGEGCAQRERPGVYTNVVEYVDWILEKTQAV
T1 sequence (P03951 19-387 partner limits assumed): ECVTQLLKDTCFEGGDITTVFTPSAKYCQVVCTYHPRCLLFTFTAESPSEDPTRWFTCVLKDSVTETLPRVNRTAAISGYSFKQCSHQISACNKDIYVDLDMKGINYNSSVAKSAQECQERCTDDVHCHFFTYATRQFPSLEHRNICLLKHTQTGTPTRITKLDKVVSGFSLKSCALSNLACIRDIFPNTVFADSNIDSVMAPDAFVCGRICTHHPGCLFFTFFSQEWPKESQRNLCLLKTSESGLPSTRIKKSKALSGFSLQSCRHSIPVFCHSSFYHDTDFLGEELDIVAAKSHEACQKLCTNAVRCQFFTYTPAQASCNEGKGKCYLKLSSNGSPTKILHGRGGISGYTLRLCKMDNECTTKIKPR
T4 sequence (P03952 391-638 limits assumed): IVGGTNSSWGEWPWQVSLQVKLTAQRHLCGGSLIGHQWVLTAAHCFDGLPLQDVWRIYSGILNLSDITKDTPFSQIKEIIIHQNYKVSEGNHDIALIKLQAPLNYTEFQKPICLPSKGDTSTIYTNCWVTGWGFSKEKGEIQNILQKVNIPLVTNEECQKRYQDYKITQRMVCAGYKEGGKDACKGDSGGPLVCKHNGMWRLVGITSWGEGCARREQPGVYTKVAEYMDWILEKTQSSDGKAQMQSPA
T4 sequence (P03952 20-390 partner limits assumed): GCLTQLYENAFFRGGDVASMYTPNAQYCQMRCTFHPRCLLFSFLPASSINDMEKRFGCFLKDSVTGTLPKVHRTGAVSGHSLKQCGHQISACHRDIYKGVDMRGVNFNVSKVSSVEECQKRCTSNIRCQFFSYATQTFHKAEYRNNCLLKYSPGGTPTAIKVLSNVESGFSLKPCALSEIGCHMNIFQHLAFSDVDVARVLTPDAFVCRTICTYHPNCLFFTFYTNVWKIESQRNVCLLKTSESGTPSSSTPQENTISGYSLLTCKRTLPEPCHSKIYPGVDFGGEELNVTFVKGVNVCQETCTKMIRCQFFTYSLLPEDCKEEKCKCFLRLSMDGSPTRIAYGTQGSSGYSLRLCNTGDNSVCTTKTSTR
T2 sequence (P00748 373-615 limits assumed, other chains not shown): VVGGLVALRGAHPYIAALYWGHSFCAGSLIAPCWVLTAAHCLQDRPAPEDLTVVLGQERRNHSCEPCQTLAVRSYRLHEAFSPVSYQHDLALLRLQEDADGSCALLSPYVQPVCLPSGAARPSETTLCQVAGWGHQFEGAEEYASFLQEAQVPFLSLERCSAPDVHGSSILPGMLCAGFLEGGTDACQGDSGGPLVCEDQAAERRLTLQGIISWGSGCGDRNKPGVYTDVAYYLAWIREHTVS

## CC[C@H](C)[C@@H]1NC(=O)CNC(=O)CNC(=O)[C@H](CC(=O)O)NC(=O)[C@H](Cc2ccc(O)cc2)NC(=O)CNC(=O)[C@H](CO)NC(=O)CNC(=O)[C@@H]2CSSC[C@@H]3NC(=O)[C@H](CC(=O)O)NC(=O)[C@H](CO)NC(=O)[C@H](CC(=O)O)NC(=O)[C@H](CCCNC(=N)N)NC(=O)[C@H](CCCNC(=N)N)NC(=O)[C@@H]4CSSC[C@H](NC(=O)[C@H]([C@@H](C)CC)NC(=O)[C@H](CSSC[C@H](NC1=O)C(=O)N1CCC[C@H]1C(=O)N[C@@H](CCCNC(=N)N)C(=O)N[C@@H]([C@@H](C)CC)C(=O)NCC(=O)N[C@@H](CCCNC(=N)N)C(=O)N[C@@H](CC(C)C)C(=O)N4)NC(=O)[C@H](C)NC(=O)CNC(=O)[C@@H]1CCCN1C3=O)C(=O)N[C@@H](CCCNC(=N)N)C(=O)N[C@@H](C)C(=O)N[C@@H]([C@@H](C)O)C(=O)N[C@@H](CCCNC(=N)N)C(=O)N[C@@H](Cc1ccccc1)C(=O)N2 [MCoFx1 cyclic] (cyclo(ACICRATRFCGSGYDGGICPRIGRLCRRDSDCPG); disulfide 2-19, 4-26, 10-32)
[1]
  EC2× (concentration required to double the clotting time): 702 nM
Human FXIa; at 5 μM, read-out: percent inhibition FXIa
  inhibition at 5 µM: 0%
Human FXIa; read-out: IC50 FXIa
  IC50: > 5 µM
[2]; Table 7, FXIIa, cyclic form of the peptide, read-out: KD (nM) Cyclic
  Kd: 0.9 ± 0.04 nM
[2]; ratio of KD values
  fold higher affinity for FXIIa than MCoTI-II: 60 fold
Rec. human uPA; at 5 μM, read-out: percent inhibition uPA
  inhibition at 5 µM: 0%
Rec. human uPA; read-out: IC50 uPA
  IC50: > 5 µM
Human plasma kallikrein; at 5 μM, read-out: percent inhibition Plasma kallikrein
  inhibition at 5 µM: 0%
Human plasma kallikrein; read-out: IC50 Plasma kallikrein
  IC50: > 5 µM
Human FXa; at 5 μM, read-out: percent inhibition FXa
  inhibition at 5 µM: 0%
Human FXa; read-out: IC50 FXa
  IC50: > 5 µM
